System: H. pylori
Assay: E-test (epsilon test, AB Biodisc) antibiotic sensitivity of H. pylori cultured from patients
Type: cell-based, Helicobacter pylori
Excerpt: The E-test is used as a graded antibiotic sensitivity detecting strip for examining resistance of H.pylori.

CO[C@H]1/C=C/O[C@@]2(C)Oc3c(C)c(O)c4c(c3C2=O)C2=NC3(CCN(CC(C)C)CC3)NC2=C(NC(=O)/C(C)=C\C=C\[C@H](C)[C@H](O)[C@@H](C)[C@@H](O)[C@@H](C)[C@H](OC(C)=O)[C@@H]1C)C4=O [Rifabutin]
E. Test Rifabutin (H. pylori isolate of each patient): < 0.002 µg/mL | E. Test Rifabutin Result (H. pylori isolate of each patient, Resistant/Sensitive): Sensitive | sensitivity of infection to rifabutin (all cases of H. pylori infection resistant to one or both of metronidazole and clarithromycin): sensitive

Reference: patent US6489317B1, “Method for eradication of Helicobacter pylori” (priority 1998, dated 2002)
